{"source": "patent US20030013692A1", "about": "“Methods of treating neurological disorders” (priority 2001, published 2003)", "origin": "cited, not measured here", "settings": "nimodipine treated subarachnoid hemorrhage (SAH) patients", "data": [{"smiles": "COCCOC(=O)C1=C(C)NC(C)=C(C(=O)OC(C)C)C1c1cccc([N+](=O)[O-])c1", "note": "(stereo not shown) [nimodipine, Isopropyl (2-methoxyethyl) 1,4-dihydro-2,6-dimethyl-4-(3-nitrophenyl)-3,5-pyridine-dicarboxylate]", "values": [{"measurement": "concentration detected in the cerebrospinal fluid", "value": "≤ 12.5", "unit": "ng/mL"}]}]}
